Experiments:
[1] = target: T1, MBP-EALpdeB (EAL domain of PdeB) (Lactobacillus acidophilus, UniProt Q5FJ84); assay: equilibrium dialysis with HPLC quantification; format: binding
T1 construct: gene LBA1415; EAL domain (residues 32-267, ELLLR motif, no N-terminal membrane targeting signal), MBP fusion in pMAL-c2, expressed in E. coli BL21, amylose column; MBP kept
T1 sequence (Q5FJ84 32-267): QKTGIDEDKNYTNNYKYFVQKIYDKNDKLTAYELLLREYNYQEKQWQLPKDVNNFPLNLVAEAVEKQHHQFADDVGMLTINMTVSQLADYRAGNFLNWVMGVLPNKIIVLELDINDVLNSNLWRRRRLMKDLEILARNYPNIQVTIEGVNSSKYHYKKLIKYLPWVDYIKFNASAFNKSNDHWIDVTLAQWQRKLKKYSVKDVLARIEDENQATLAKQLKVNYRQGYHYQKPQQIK

[2] = target: T2, MBP-PdeA (Lactobacillus acidophilus, UniProt Q5FJ85); assay: PDE assay, reversed-phase HPLC; format: biochemical; settings: 10 μM enzyme, 100 μM c-di-GMP, 5 mM MgCl2, 50 mM Tris-HCl pH 9.35, 37 °C
T2 construct: gene LBA1414; pdeA (EAL domain only protein), MBP fusion in pMAL-c2, expressed in E. coli BL21, amylose column; MBP kept
T2 sequence (Q5FJ85 1-231): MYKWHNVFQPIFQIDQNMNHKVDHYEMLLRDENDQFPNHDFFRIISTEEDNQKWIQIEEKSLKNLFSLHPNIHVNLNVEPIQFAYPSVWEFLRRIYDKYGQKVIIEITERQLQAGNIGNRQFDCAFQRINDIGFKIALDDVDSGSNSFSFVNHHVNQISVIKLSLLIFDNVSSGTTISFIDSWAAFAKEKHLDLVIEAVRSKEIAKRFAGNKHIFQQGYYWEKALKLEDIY

Kd [1]	SMILES	PDE assay, reversed-phase HPLC [2]
4.87 ± 0.89 µM	Nc1nc2c(ncn2[C@@H]2O[C@@H]3COP(=O)(O)O[C@H]4[C@@H](O)[C@H](n5cnc6c(=O)[nH]c(N)nc65)O[C@@H]4COP(=O)(O)O[C@H]3[C@H]2O)c(=O)[nH]1 [c-di-GMP]	PdeA was able to hydrolyze c-di-GMP to pGpG
–	Nc1nc2c(ncn2[C@@H]2O[C@H](COP(=O)(O)O[C@H]3[C@@H](O)[C@H](n4cnc5c(=O)[nH]c(N)nc54)O[C@@H]3COP(=O)(O)O)[C@@H](O)[C@H]2O)c(=O)[nH]1 [pGpG]	The PdeA enzymatic reaction product corresponded to the retention time of the pGpG

Source: article PMC6123363, “Functional Characterization of c-di-GMP Signaling-Related Genes in the Probiotic Lactobacillus acidophilus” (Frontiers in Microbiology, 2018)
